The target of one data set is T7 RNA polymerase (Escherichia phage T7, UniProt P00573). Particulars: 0.05 to 0.1 mM substrate, 1 mM natural NTPs, 37° C., 3 hr.
The conditions of data set [1]: cited from earlier work.
Data set [2] in a line: Fluorescence characteristics of base analog nucleosides. Particulars: for Absorption maximum / Excitation wavelength / Fluorescence intensity (ε × φ) / Fluorescence wavelength / Molar absoption coefficient ε / Stokes shift: deoxyribonucleoside derivative; for Quantum yield (φ): quinine sulfate as a standard; for Fluorescence emitted by excitation at a wavelength of 350 nm or more: excitation 350 nm or more. The data set is classed as physicochemical. On the procedure: Reagents and solvents were purchased from typical suppliers and were used without further purification. ^1H-NMR (300 MHz, 270 MHz) and ^31P-NMR (121 MHz) spectra were recorded on a BRUKER AV300 or JEOL nuclear magnetic resonance spectrometer. Synthesized nucleoside derivatives and nucleoside 5′-triphosphate were purified with a Gilson HPLC system using a fractionation column (Waters Microbond Sphere, C18, 19 mm×150 mm, flow rate: 10 mL/min) and a fractionation column (PEGASIL C8, Senshu Scientific Co., Ltd., 10 mm×150 mm, flow rate: 6 mL/min), respectively. Electrospray-ionization mass spectra (ESI-MS) were recorded on a Waters ZMD 4000 mass system equipped with a Waters 2690 LC system. Fluorescence spectra were measured with a JASCO FP6500 fluorescence spectrometer, and fluorescence quantum yields were determined using quinine sulfate as a standard.
Fluorescence characteristics of nucleosides including an unnatural base, ss, sss, Dss, Dsss, Dsas, Dsav, or Dvas, were evaluated. For comparison, fluorescence characteristics of nucleosides including known unnatural bases, 2-aminopurine, s (2-amino-6-(2-thienyl)purin-9-yl group), v (2-amino-6-(2-thiazolyl)purin-9-yl group), and Ds (7-(2-thienyl)imidazo[4,5-b]pyridin-3-yl group) were also evaluated.

A further data set concerns the target Klenow fragment (exo+) (Escherichia coli, UniProt P00582). Particulars: 0.5 μM dDssTP with 10 μM natural base substrate, 37° C.
[3] abbreviates: from Ward et al., J. Biol. Chem. 1969.

“And” between values parts separate entries of the source, which are not always exact repeats. Identical values can stand only once. Like-named read-outs stand apart in the source and are kept apart here.

T7 RNA polymerase, sequence (P00573 whole entry): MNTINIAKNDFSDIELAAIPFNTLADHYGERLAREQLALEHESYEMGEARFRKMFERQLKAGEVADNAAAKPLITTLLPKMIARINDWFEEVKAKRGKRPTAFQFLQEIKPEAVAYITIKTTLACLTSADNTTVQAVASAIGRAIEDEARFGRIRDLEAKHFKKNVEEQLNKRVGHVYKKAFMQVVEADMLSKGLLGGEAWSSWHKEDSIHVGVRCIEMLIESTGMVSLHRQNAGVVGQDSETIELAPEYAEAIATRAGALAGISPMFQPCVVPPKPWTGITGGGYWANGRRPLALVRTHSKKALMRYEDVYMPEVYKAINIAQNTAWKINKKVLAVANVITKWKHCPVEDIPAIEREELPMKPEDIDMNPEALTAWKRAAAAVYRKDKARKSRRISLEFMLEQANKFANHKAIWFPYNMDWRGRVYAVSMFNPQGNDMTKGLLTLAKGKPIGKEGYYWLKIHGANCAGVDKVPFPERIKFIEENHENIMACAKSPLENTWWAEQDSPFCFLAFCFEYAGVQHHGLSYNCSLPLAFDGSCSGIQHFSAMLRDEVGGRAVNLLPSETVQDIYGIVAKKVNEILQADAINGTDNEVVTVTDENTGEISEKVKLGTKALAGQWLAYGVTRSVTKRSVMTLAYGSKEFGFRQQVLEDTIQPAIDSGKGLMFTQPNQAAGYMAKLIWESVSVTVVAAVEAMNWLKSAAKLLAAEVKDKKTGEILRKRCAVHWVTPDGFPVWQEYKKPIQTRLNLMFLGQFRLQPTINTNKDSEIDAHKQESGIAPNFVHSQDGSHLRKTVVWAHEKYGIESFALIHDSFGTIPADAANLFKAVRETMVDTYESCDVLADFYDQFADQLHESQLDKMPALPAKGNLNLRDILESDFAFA
Klenow fragment (exo+), sequence (P00582 324-928): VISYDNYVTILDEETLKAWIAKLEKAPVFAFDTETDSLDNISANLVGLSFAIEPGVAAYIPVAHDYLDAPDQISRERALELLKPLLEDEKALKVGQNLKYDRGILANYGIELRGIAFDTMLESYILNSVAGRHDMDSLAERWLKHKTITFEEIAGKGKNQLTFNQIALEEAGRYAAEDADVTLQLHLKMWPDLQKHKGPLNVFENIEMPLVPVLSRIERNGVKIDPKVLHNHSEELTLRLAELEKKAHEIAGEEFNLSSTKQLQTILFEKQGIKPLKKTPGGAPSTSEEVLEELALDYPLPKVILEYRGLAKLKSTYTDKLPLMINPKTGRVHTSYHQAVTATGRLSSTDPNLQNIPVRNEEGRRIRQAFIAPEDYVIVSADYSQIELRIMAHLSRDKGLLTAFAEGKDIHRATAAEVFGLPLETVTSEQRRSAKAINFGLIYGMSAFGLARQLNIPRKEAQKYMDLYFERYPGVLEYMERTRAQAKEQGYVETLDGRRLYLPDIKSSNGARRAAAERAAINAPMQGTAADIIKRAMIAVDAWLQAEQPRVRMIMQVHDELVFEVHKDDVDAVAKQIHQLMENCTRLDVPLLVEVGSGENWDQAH
Procedure for Klenow fragment (exo+): Template strand DNA (SEQ ID NO: 1,35-mer, 400 nM) dissolved in 2× reaction buffer (20 mM tris-HCl, pH 7.5, 14 mM MgCl2, 0.2 mM DTT) and a primer labeled with ^32P at the 5′-end (SEQ ID NO: 2,23-mer, 400 nM) were heated at 95° C. for 3 min and then slowly cooled for annealing to form a double strand. To each 5 μL of the resulting double-stranded DNA solution, 2.5 μL of a 4×dNTP solution mixture (40 μM dTTP, 40 μM dCTP, 0 to 40 μM dDssTP) and 2.5 μL (1 unit) of Klenow fragment (Takara Shuzo Co., Ltd.) diluted with water were added to start the enzyme reaction at 37° C. After incubation at 37° C., the reaction was terminated by addition of a TBE solution containing 10 μL of 10 M urea and heating at 75° C. for 3 min. A part of the reaction solution was subjected to electrophoresis with 15% polyacrylamide-7 M urea gel and analyzed with a bio-imaging analyzer (FLA7000, Fujifilm Corporation).
Procedure for T7 RNA polymerase: Templates for transcription by the T7 polymerase were prepared by heating chemically synthesized two DNA strands (10 μM coding strand (SEQ ID NO: 4) of 35-mer and non-coding strand (SEQ ID NO: 5) of 21-mer) at 95° C. in a 10 mM Tris-HCl buffer (pH 7.6) containing 10 mM NaCl and then slowly cooled to 4° C. for annealing. The transcription by the T7 polymerase was performed by using 2 μM of the template and 50 units of a T7 RNA polymerase (Takara Shuzo Co., Ltd., Kyoto) in a 40 mM Tris-HCl buffer (pH 8.0, 20 μL) containing 24 mM MgCl2, 2 mM spermidine, 5 mM DTT, and 0.01% Triton X-100 in the presence of 1 mM natural NTPs, 0.05 to 0.1 mM ssTP or DssTP (ribonucleoside 5′-triphosphate of ss or Dss). After the reaction at 37° C. for 3 hr, the reaction was terminated by addition of a dye solution (20 μL) containing 10 M urea and 0.05% BPB. […] The transcription product was protected by placing the gel on a TLC containing a fluorescent indicator, irradiating the gel with UV of 254 nm, and photographing the image with a Polaroid camera utilizing the phenomenon that nucleic acid absorbs the UV and thereby the band of the transcription product is detected as an image. The transcript including the unnatural fluorescent base ss or Dss was detected with a bio-imaging analyzer, LAS 4000 (Fujifilm Corporation) utilizing epi-UV LED.

Take `O=P(O)(O)OP(=O)(O)OP(=O)(O)OC[C@H]1O[C@@H](n2cnc3c(-c4ccc(-c5cccs5)s4)ccnc32)[C@H](O)[C@@H]1O` [DssTP, 7-(2,2′-bithien-5-yl)-3-(β-D-ribofuranosyl)imidazo[4,5-b]pyridine 5′-triphosphate]: the “Incorporation into RNA opposite Pa in template DNA” value at T7 RNA polymerase is recorded as “selectively incorporated into RNA depending on Pa”.

Take `Nc1nc(-c2cccs2)c2[nH]cnc2n1` [s, 2-amino-6-thienylpurine]: in data set [1] (background art), the Fluorescence wavelength is reported as 435 nm and the Maximum excitation wavelength is reported as 348 nm.

Take `OC[C@H]1O[C@@H](n2ccc3c(-c4ccc(-c5cccs5)s4)ccnc32)C[C@@H]1O` [dDsas, 1-[2-deoxy-β-D-ribofuranosyl]-4-(2,2′-bithien-5-yl)-pyrrolo[2,3-b]pyridine]: in data set [2], the Absorption maximum was found to be 365 nm, the Excitation wavelength is reported as 367 nm, the “Fluorescence intensity (ε × φ)” value is 2795 and the Fluorescence wavelength worked out at 451 nm. In addition, in data set [2], the “Molar absoption coefficient ε” value turned out to be 21500 M⁻¹ cm⁻¹, the Stokes shift is 84 nm and the “Quantum yield (φ)” value is 0.13.

For `c1csc(-c2ccnc3nc[nH]c23)c1` [ds, 7-(2-thienyl)-imidazo[4,5-b]pyridine, reference compound], in data set [2], the Absorption maximum is recorded as 353 nm; the Excitation wavelength was 350 nm and 351 nm; the “Fluorescence intensity (ε × φ)” value is reported as 2576; the Fluorescence wavelength is on record as 429 nm. Also, in data set [2], the “Molar absoption coefficient ε” value was found to be 11200 M⁻¹ cm⁻¹, the Stokes shift was determined as 78 nm and the “Quantum yield (φ)” value was 0.23. The “Fluorescence by excitation at a wavelength of 350 nm or more” value in data set [1] (background art) is “substantially invisible to the naked eye”.

`OC[C@H]1O[C@@H](n2cnc3c(-c4ccc(-c5cccs5)s4)ccnc32)C[C@@H]1O` [dDss, 7-(2,2′-bithien-5-yl)-3-(2-deoxy-β-D-ribofuranosyl)imidazo[4,5-b]pyridine]: in data set [2], the Absorption maximum is reported as 370 nm, the Excitation wavelength amounted to 371 nm, the “Fluorescence intensity (ε × φ)” value amounted to 10400 and the Fluorescence wavelength stood at 442 nm. Besides, in data set [2], the “Molar absoption coefficient ε” value is 32500 M⁻¹ cm⁻¹, the Stokes shift is given as 71 nm and the “Quantum yield (φ)” value is listed as 0.32.

As to `OC[C@H]1O[C@@H](n2cnc3c(-c4cccs4)ccnc32)C[C@@H]1O` [dDs, reference compound], in data set [2], the Absorption maximum worked out at 313 nm, the “Fluorescence intensity (ε × φ)” value stood at 4180, the Fluorescence wavelength amounted to 366 nm and the “Molar absoption coefficient ε” value came out at 22000 M⁻¹ cm⁻¹. In data set [2], the Stokes shift turned out to be 54 nm, the “Fluorescence emitted by excitation at a wavelength of 350 nm or more” value is “does not emit light” and the “Quantum yield (φ)” value was determined as 0.19.

For `Nc1nc(-c2nccs2)c2ncn([C@H]3C[C@H](O)[C@@H](CO)O3)c2n1` [dv, reference compound], the “Stability of nucleoside derivative under basic conditions” value is given as “low stability”. In addition, in data set [2], the Absorption maximum was 363 nm; the Excitation wavelength is 363 nm and 357 nm; the “Fluorescence intensity (ε × φ)” value is reported as 3444; the Fluorescence wavelength worked out at 461 nm. For the same compound, in data set [2], the “Molar absoption coefficient ε” value came to 8400 M⁻¹ cm⁻¹, the Stokes shift came to 104 nm and the “Quantum yield (φ)” value stood at 0.41.

For `Nc1nc(-c2ccc(-c3cccs3)s2)c2ncn([C@@H]3O[C@H](COP(=O)(O)OP(=O)(O)OP(=O)(O)O)[C@@H](O)[C@H]3O)c2n1` [ssTP], the “Incorporation into RNA opposite Pa in template DNA” value at T7 RNA polymerase is reported as “selectively incorporated into RNA depending on Pa”.

With `OC[C@H]1O[C@@H](n2cnc3c(-c4ccc(-c5ccc(-c6cccs6)s5)s4)ccnc32)C[C@@H]1O` [dDsss, 7-(2,2′,5′,2″-terthien-5-yl)-3-(2-deoxy-β-D-ribofuranosyl)imidazo[4,5-b]pyridine], in data set [2], the Absorption maximum was found to be 403 nm, the Excitation wavelength stood at 407 nm, the “Fluorescence intensity (ε × φ)” value is 3132 and the Fluorescence wavelength stood at 489 nm. Besides, in data set [2], the “Molar absoption coefficient ε” value turned out to be 34800 M⁻¹ cm⁻¹, the Stokes shift is 82 nm and the “Quantum yield (φ)” value came to 0.09.

With `O=P(O)(O)OP(=O)(O)OP(=O)(O)OC[C@H]1O[C@@H](n2cnc3c(-c4ccc(-c5cccs5)s4)ccnc32)C[C@@H]1O` [dDssTP, 7-(2,2′-bithien-5-yl)-3-(2-deoxy-β-D-ribofuranosyl)imidazo[4,5-b]pyridine 5′-triphosphate], on Klenow fragment (exo+), the “Incorporation into DNA opposite Pa in template DNA” value is recorded as “selectively incorporated into a complementary DNA strand”.

Regarding `Nc1nc(-c2ccc(-c3ccc(-c4cccs4)s3)s2)c2ncn([C@H]3C[C@H](O)[C@@H](CO)O3)c2n1` [dsss, 2-amino-6-(2,2′,5′,2″-terthien-5-yl)-9-(2-deoxy-β-D-ribofuranosyl)purine], in data set [2], the Absorption maximum was 414 nm, the Excitation wavelength is listed as 419 nm, the “Fluorescence intensity (ε × φ)” value is 4928 and the Fluorescence wavelength is 508 nm. For the same compound, in data set [2], the “Molar absoption coefficient ε” value turned out to be 44800 M⁻¹ cm⁻¹, the Stokes shift is 89 nm and the “Quantum yield (φ)” value was 0.11.

In the case of `Nc1ncc2[nH]cnc2n1` [2-aminopurine], the “Fluorescence emitted by excitation at a wavelength of 350 nm or more” value in data set [2] is listed as “considerably low”. Moreover, in data set [1] (setting [3]), the Absorption maximum was 304 nm, the Excitation wavelength result is recorded as “about 300 nm”, the “Fluorescence intensity (ε × φ)” value was 4828 and the Fluorescence wavelength is 370 nm. Moreover, in data set [1] (setting [3]), the “Molar absoption coefficient ε” value was 7100 M⁻¹ cm⁻¹, the “Quantum yield (φ)” value is given as 0.68 and the Stokes shift is given as 67 nm. The Excitation wavelength in data set [1] (from Ward et al., J. Biol. Chem. 1969, listed as 2-aminoprine) is listed as 303 nm.

`OC[C@H]1O[C@@H](n2ccc3c(-c4ccc(-c5nccs5)s4)ccnc32)C[C@@H]1O` [dDsav, 1-[2-deoxy-β-D-ribofuranosyl]-4-[2-(2-thiazolyl)thien-5-yl]pyrrolo[2,3-b]pyridine]: in data set [2], the Absorption maximum amounted to 365 nm, the Excitation wavelength was 368 nm, the “Fluorescence intensity (ε × φ)” value is 2795 and the Fluorescence wavelength was 445 nm. Also, in data set [2], the “Molar absoption coefficient ε” value came to 21500 M⁻¹ cm⁻¹, the Stokes shift was 77 nm and the “Quantum yield (φ)” value came to 0.13.

Consider `OC[C@H]1O[C@@H](n2ccc3c(-c4ncc(-c5cccs5)s4)ccnc32)C[C@@H]1O` [dDvas, 1-[2-deoxy-β-D-ribofuranosyl]-4-[5-(2-thienyl)thiazol-2-yl]pyrrolo[2,3-b]pyridine], for which, in data set [2], the Absorption maximum came to 377 nm, the Excitation wavelength was 378 nm, the “Fluorescence intensity (ε × φ)” value came out at 3780 and the Fluorescence wavelength was found to be 449 nm. Further, in data set [2], the “Molar absoption coefficient ε” value is 27000 M⁻¹ cm⁻¹, the Stokes shift is 71 nm and the “Quantum yield (φ)” value was 0.14.

Source of the values: patent US8686130B2, “Artificial fluorescent bases” (Riken, priority 2009, dated 2014).
